Legend:
[1] = test system: U2OS; test: cell viability relative to DMSO; higher = less toxic; details: 72 h
[2] = test system: HepG2; test: as above; details: 72 h
[3] = test system: Caco-2; test: as above; details: 72 h
[4] = test system: Vero E6; test: as above; details: 72 h
[5] = test system: A549-ACE2; test: drug-induced phospholipidosis relative to tamoxifen; higher = more phospholipidosis
[6] = test system: A549-ACE2 infected with SARS-CoV-2; test: cell count relative to DMSO; higher = less toxic; details: 24 h
[7] = test system: A549-ACE2 infected with SARS-CoV-2; test: morphology score (similarity to uninfected cells); higher = more like uninfected cells; details: 24 h
[8] = test system: U2OS; test: drug sensitivity score (DSS) for viability; higher = more toxic; extreme values may be limits of the assay; details: 72 h
[9] = test system: HepG2; test: as above; details: 72 h
[10] = test system: Caco-2; test: as above; details: 72 h
[11] = test system: Vero E6; test: as above; details: 72 h
[12] = test system: U2OS; test: relative viability EC50 (midpoint between 100% and the lowest measured viability); higher = less toxic; details: 72 h
[13] = test system: HepG2; test: as above; details: 72 h
[14] = test system: Caco-2; test: as above; details: 72 h
[15] = test system: Vero E6; test: as above; details: 72 h
[16] = test system: A549-ACE2 infected with SARS-CoV-2; test: SARS-CoV-2 infection rate relative to DMSO; higher = more infection; details: 24 h
[17] = test system: Calu-3; test: cell viability relative to DMSO; higher = less toxic; details: 72 h
[18] = test system: Calu-3; test: drug sensitivity score (DSS) for viability; higher = more toxic; extreme values may be limits of the assay; details: 72 h
[19] = test system: Calu-3; test: relative viability EC50 (midpoint between 100% and the lowest measured viability); higher = less toxic; details: 72 h

O=C(Nc1ccc(-c2ccncc2)cc1)N[C@H](CO)c1ccccc1
Details	SARS-CoV-2 infection rate, [16] [%]	cell count, [6] [%]	cell viability, [1] [%]	cell viability, [2] [%]	cell viability, [3] [%]	cell viability, [4] [%]	morphology score, [7]
1 nM	–	–	98.6	96.7	99.4	97	–
10 nM	–	–	96.3	94.7	98.6	98.2	–
100 nM	–	–	99.2	105	96.1	98	–
0.1 µM	98	105	–	–	–	–	0.27
0.3 µM	101	112	–	–	–	–	0.23
1000 nM	–	–	97.5	102	95.3	94.2	–
1 µM	94	106	–	–	–	–	0.26
3 µM	110	91	–	–	–	–	-0.17
10000 nM	–	–	94.7	84.8	96.4	77	–

drug-induced phospholipidosis [%], [5]
Details	0.3 µM	0.833333 µM	3.33333 µM	6.66667 µM	10 µM	30 µM
24 h	3.51	2.55	2.66	3.66	1.91	3.72
48 h	2.8	0.36	-0.35	3.11	1.09	6.28
72 h	2.59	-2.02	-0.767	-0.334	-0.186	6.14

Details	drug sensitivity score	relative viability EC50 [nM]
[8]	0	–
[9]	0.2	–
[10]	0	–
[11]	1.6	–
[12]	–	> 10000
[13]	–	> 10000
[14]	–	> 10000
[15]	–	> 10000

Clc1ccc(N/N=C(\c2ccccc2)c2ccccn2)nc1 [JIB04]
Details	SARS-CoV-2 infection rate, [16] [%]	cell count, [6] [%]	cell viability, [1] [%]	cell viability, [2] [%]	cell viability, [3] [%]	cell viability, [4] [%]	cell viability, [17] [%]	morphology score, [7]
1 nM	–	–	102	92.7	89.4	91.7	101	–
10 nM	–	–	97.9	87.8	94.1	102	108	–
100 nM	–	–	95.6	19.8	33.7	89.4	102	–
0.3 µM	104	99	–	–	–	–	–	-0.14
1000 nM	–	–	34.3	6.2	11.2	53.7	14.7	–
3 µM	82	96	–	–	–	–	–	0.28
10000 nM	–	–	6.9	21.6	34.7	6.4	18.8	–
10 µM	36	88	–	–	–	–	–	0.37
30 µM	50	54	–	–	–	–	–	0.36

[5]
Details	drug-induced phospholipidosis [%]
0.3 µM, 24 h	4.18
0.3 µM, 48 h	6.34
0.3 µM, 72 h	8.31
0.833333 µM, 24 h	-0.88
3.33333 µM, 24 h	-2.31
6.66667 µM, 24 h	22.5
10 µM, 24 h	26.1
30 µM, 24 h	2.4

Details	drug sensitivity score	relative viability EC50 [nM]
[8]	13.2	–
[9]	28.1	–
[10]	24.6	–
[11]	10.7	–
[12]	–	595
[13]	–	32.7
[14]	–	50.2
[15]	–	943
[18]	15.3	–
[19]	–	327

Source: the supplement of paper PMC13380429
